According to ChEMBL document CHEMBL3045802, “Synthesis and in vitro antitumor activity of new quinoline, pyrimido[4,5-b]quinoline, [1,2,3]triazino[4,5-b]quinoline, and [1,2,4]triazolo[2,3:3,4]pyrimido[6,5-b]quinoline analogs” (2013):

Key:
Format in all cases: functional
NCI-H226 = assay: Cytotoxicity against Homo sapiens (human) NCI-H226 cells assessed as growth inhibition at 10 uM after 48 hr by coulter counter analysis; conditions: NCI-H226, 48 h, read-out: GI
OVCAR-3 = assay: Cytotoxicity against Homo sapiens (human) OVCAR3 cells assessed as growth inhibition at 10 uM after 48 hr by coulter counter analysis; conditions: OVCAR-3, 48 h, read-out: GI
RXF 393 = assay: Cytotoxicity against Homo sapiens (human) RXF393 cells assessed as growth inhibition at 10 uM after 48 hr by coulter counter analysis; conditions: RXF 393, 48 h, read-out: GI
MDA-MB-435 = assay: Cytotoxicity against Homo sapiens (human) MDA-MB-435 cells assessed as growth inhibition at 10 uM after 48 hr by coulter counter analysis; conditions: MDA-MB-435, 48 h, read-out: GI
COLO 205 = assay: Cytotoxicity against Homo sapiens (human) COLO205 cells assessed as growth inhibition at 10 uM after 48 hr by coulter counter analysis; conditions: COLO 205, 48 h, read-out: GI
CAKI-1 = assay: Cytotoxicity against Homo sapiens (human) Caki1 cells assessed as growth inhibition at 10 uM after 48 hr by coulter counter analysis; conditions: CAKI-1, 48 h, read-out: GI
SF-539 = assay: Cytotoxicity against Homo sapiens (human) SF539 cells assessed as growth inhibition at 10 uM after 48 hr by coulter counter analysis; conditions: SF-539, 48 h, read-out: GI
OVCAR-4 = assay: Cytotoxicity against Homo sapiens (human) OVCAR4 cells assessed as growth inhibition at 10 uM after 48 hr by coulter counter analysis; conditions: OVCAR-4, 48 h, read-out: GI
UO-31 = assay: Cytotoxicity against Homo sapiens (human) UO31 cells assessed as growth inhibition at 10 uM after 48 hr by coulter counter analysis; conditions: UO-31, 48 h, read-out: GI
[1] = Cytotoxicity against Homo sapiens (human) NCI-ADR-RES cells assessed as growth inhibition at 10 uM after 48 hr by coulter counter analysis; conditions: read-out: GI
SF-295 = assay: Cytotoxicity against Homo sapiens (human) SF295 cells assessed as growth inhibition at 10 uM after 48 hr by coulter counter analysis; conditions: SF-295, 48 h, read-out: GI
HT-29 = assay: Cytotoxicity against Homo sapiens (human) HT-29 cells assessed as growth inhibition at 10 uM after 48 hr by coulter counter analysis; conditions: HT-29, 48 h, read-out: GI
786-0 = assay: Cytotoxicity against Homo sapiens (human) 786-0 cells assessed as growth inhibition at 10 uM after 48 hr by coulter counter analysis; conditions: 786-0, 48 h, read-out: GI
HL-60(TB) = assay: Cytotoxicity against Homo sapiens (human) HL-60(TB) cells assessed as growth inhibition at 10 uM after 48 hr by coulter counter analysis; conditions: HL-60, 48 h, read-out: GI
T47D = assay: Cytotoxicity against Homo sapiens (human) T47D cells assessed as growth inhibition at 10 uM after 48 hr by coulter counter analysis; conditions: read-out: GI
OVCAR-5 = assay: Cytotoxicity against Homo sapiens (human) OVCAR5 cells assessed as growth inhibition at 10 uM after 48 hr by coulter counter analysis; conditions: OVCAR-5, 48 h, read-out: GI
HCT-15 = assay: Cytotoxicity against Homo sapiens (human) HCT15 cells assessed as growth inhibition at 10 uM after 48 hr by coulter counter analysis; conditions: HCT-15, 48 h, read-out: GI
PC-3 = assay: Cytotoxicity against Homo sapiens (human) PC3 cells assessed as growth inhibition at 10 uM after 48 hr by coulter counter analysis; conditions: PC-3, 48 h, read-out: GI
OVCAR-8 = assay: Cytotoxicity against Homo sapiens (human) OVCAR8 cells assessed as growth inhibition at 10 uM after 48 hr by coulter counter analysis; conditions: OVCAR-8, 48 h, read-out: GI
UACC-257 = assay: Cytotoxicity against Homo sapiens (human) UACC257 cells assessed as growth inhibition at 10 uM after 48 hr by coulter counter analysis; conditions: UACC-257, 48 h, read-out: GI
SK-MEL-28 = assay: Cytotoxicity against Homo sapiens (human) SK-MEL-28 cells assessed as growth inhibition at 10 uM after 48 hr by coulter counter analysis; conditions: SK-MEL-28, 48 h, read-out: GI
SR = assay: Cytotoxicity against Homo sapiens (human) SR cells assessed as growth inhibition at 10 uM after 48 hr by coulter counter analysis; conditions: read-out: GI
HOP-62 = assay: Cytotoxicity against Homo sapiens (human) HOP62 cells assessed as growth inhibition at 10 uM after 48 hr by coulter counter analysis; conditions: HOP-62, 48 h, read-out: GI
HOP-92 = assay: Cytotoxicity against Homo sapiens (human) HOP92 cells assessed as growth inhibition at 10 uM after 48 hr by coulter counter analysis; conditions: HOP-92, 48 h, read-out: GI
SK-MEL-2 = assay: Cytotoxicity against Homo sapiens (human) SK-MEL-2 cells assessed as growth inhibition at 10 uM after 48 hr by coulter counter analysis; conditions: SK-MEL-2, 48 h, read-out: GI
SNB-19 = assay: Cytotoxicity against Homo sapiens (human) SNB19 cells assessed as growth inhibition at 10 uM after 48 hr by coulter counter analysis; conditions: SNB-19, 48 h, read-out: GI
RPMI-8226 = assay: Cytotoxicity against Homo sapiens (human) RPMI8226 cells assessed as growth inhibition at 10 uM after 48 hr by coulter counter analysis; conditions: RPMI-8226, 48 h, read-out: GI
HCC 2998 = assay: Cytotoxicity against Homo sapiens (human) HCC2998 cells assessed as growth inhibition at 10 uM after 48 hr by coulter counter analysis; conditions: HCC 2998, 48 h, read-out: GI
SF-268 = assay: Cytotoxicity against Homo sapiens (human) SF268 cells assessed as growth inhibition at 10 uM after 48 hr by coulter counter analysis; conditions: SF-268, 48 h, read-out: GI
M14 = assay: Cytotoxicity against Homo sapiens (human) M14 cells assessed as growth inhibition at 10 uM after 48 hr by coulter counter analysis; conditions: M14, 48 h, read-out: GI
MCF7 = assay: Cytotoxicity against Homo sapiens (human) MCF7 cells assessed as growth inhibition at 10 uM after 48 hr by coulter counter analysis; conditions: MCF7, 48 h, read-out: GI
IGROV-1 = assay: Cytotoxicity against Homo sapiens (human) IGROV1 cells assessed as growth inhibition at 10 uM after 48 hr by coulter counter analysis; conditions: IGROV-1, 48 h, read-out: GI
A498 = assay: Cytotoxicity against Homo sapiens (human) A498 cells assessed as growth inhibition at 10 uM after 48 hr by coulter counter analysis; conditions: A498, 48 h, read-out: GI

Row | SMILES | inhibition of growth at 10 µM (NCI-H226) [%] | inhibition of growth at 10 µM (OVCAR-3) [%] | inhibition of growth at 10 µM (RXF 393) [%] | inhibition of growth at 10 µM (MDA-MB-435) [%] | inhibition of growth at 10 µM (COLO 205) [%] | inhibition of growth at 10 µM (CAKI-1) [%] | inhibition of growth at 10 µM (SF-539) [%] | inhibition of growth at 10 µM (OVCAR-4) [%] | inhibition of growth at 10 µM (UO-31) [%] | inhibition of growth at 10 µM [1] [%] | inhibition of growth at 10 µM (SF-295) [%] | inhibition of growth at 10 µM (HT-29) [%] | inhibition of growth at 10 µM (786-0) [%] | inhibition of growth at 10 µM (HL-60(TB)) [%] | inhibition of growth at 10 µM (T47D) [%] | inhibition of growth at 10 µM (OVCAR-5) [%] | inhibition of growth at 10 µM (HCT-15) [%] | inhibition of growth at 10 µM (PC-3) [%] | inhibition of growth at 10 µM (OVCAR-8) [%] | inhibition of growth at 10 µM (UACC-257) [%] | other results
1 | COc1ccc(C2C3=C(CCCC3)Nc3nn[nH]c(=O)c32)cc1OC (centres undefined) | 15.9 | < 10 | 14.4 | < 10 | 15.9 | 23.4 | < 10 | < 10 | 48.6 | < 10 | < 10 | < 10 | < 10 | < 10 | 21.1 | 12.6 | < 10 | 13.4 | < 10 | < 10 | inhibition of growth at 10 µM (SK-MEL-28): < 10%; inhibition of growth at 10 µM (SR): < 10%; inhibition of growth at 10 µM (HOP-62): 15.7%; inhibition of growth at 10 µM (HOP-92): 13.3%; inhibition of growth at 10 µM (SK-MEL-2): < 10%; inhibition of growth at 10 µM (SNB-19): 10.7%; inhibition of growth at 10 µM (RPMI-8226): < 10%; inhibition of growth at 10 µM (HCC 2998): < 10%; inhibition of growth at 10 µM (SF-268): < 10%; inhibition of growth at 10 µM (M14): < 10%; inhibition of growth at 10 µM (MCF7): < 10%; inhibition of growth at 10 µM (IGROV-1): < 10%; inhibition of growth at 10 µM (A498): 13.2%
2 | COc1ccc(C2C3=C(CCCC3)Nc3[nH]c(=S)nc(NC(N)=S)c32)cc1OC (centres undefined) | 18.6 | < 10 | 14.3 | 70.7 | 12.8 | 10 | 21.1 | < 10 | 43.5 | 11.7 | 14.4 | < 10 | < 10 | < 10 | 27.5 | < 10 | 10.2 | 23.5 | < 10 | < 10 | inhibition of growth at 10 µM (SK-MEL-28): < 10%; inhibition of growth at 10 µM (SR): 40.6%; inhibition of growth at 10 µM (HOP-62): 25.4%; inhibition of growth at 10 µM (HOP-92): 25.8%; inhibition of growth at 10 µM (SK-MEL-2): 12.6%; inhibition of growth at 10 µM (SNB-19): 10.4%; inhibition of growth at 10 µM (RPMI-8226): < 10%; inhibition of growth at 10 µM (HCC 2998): < 10%; inhibition of growth at 10 µM (SF-268): < 10%; inhibition of growth at 10 µM (M14): < 10%; inhibition of growth at 10 µM (MCF7): < 10%; inhibition of growth at 10 µM (IGROV-1): < 10%; inhibition of growth at 10 µM (A498): < 10%
3 | N#CCc1nc2c(c(=O)[nH]1)C(c1ccc(Cl)cc1)C1=C(CCCC1)N2 (centres undefined) | < 10 | < 10 | < 10 | < 10 | 10.4 | < 10 | < 10 | < 10 | 37.7 | < 10 | < 10 | < 10 | < 10 | < 10 | 14.1 | < 10 | < 10 | < 10 | < 10 | < 10 | inhibition of growth at 10 µM (SK-MEL-28): < 10%; inhibition of growth at 10 µM (SR): < 10%; inhibition of growth at 10 µM (HOP-62): 12.5%; inhibition of growth at 10 µM (HOP-92): 11.2%; inhibition of growth at 10 µM (SK-MEL-2): 10%; inhibition of growth at 10 µM (SNB-19): < 10%; inhibition of growth at 10 µM (RPMI-8226): < 10%; inhibition of growth at 10 µM (HCC 2998): < 10%; inhibition of growth at 10 µM (SF-268): < 10%; inhibition of growth at 10 µM (M14): < 10%; inhibition of growth at 10 µM (MCF7): < 10%; inhibition of growth at 10 µM (IGROV-1): < 10%; inhibition of growth at 10 µM (A498): 13%
